Common to all, as to assay type: in vivo
Test [1] has as its system radish plants. The experiment in a line: Effects of PGR on radish growth (soil applied). The following applies: soil applied at planting and weekly, PGR solution 12 oz/acre, IAA or kinetin 0.84 micrograms per square foot; for Average Leaf Length: largest leaf, 21 days after planting, ± SD of the mean; for Average Hypocotyl Length: measured 21 days after planting, ± standard deviation of the mean. The protocol: In this experiment, the effects of PGRs on radish growth were observed. A total of eighty (80) plants were used for this experiment. Twenty (20) plants were treated with water as a control. Twenty (20) plants were treated with a PGR solution corresponding to a rate of 12 oz/acre. The PGR solution is an aqueous solution including 0.015% IAA, 0.005% IBA, 0.009% cytokinin and 0.005% gibberellic acid as active ingredients. […] A small measure, 0.0084 ml of this solution, was diluted into 100 ml of water and applied to the soil of a container having a surface area of about 1 square foot to correspond to an application rate of 12 oz/acre. Twenty (20) plants were treated with an auxin solution containing indole-3-acetic acid (IAA) at a rate of 0.84 micrograms in 100 ml water per square foot of surface area of the container. Finally, twenty (20) plants were treated with the cytokinin kinetin at a rate of 0.84 micrograms in 100 ml water per square foot of surface area of the container. Treatments were applied to soil at the time of planting and repeated every week thereafter. Length of the hypocotyl and largest leaf of each plant was measured 21 days after planting. The mean hypocotyl length and leaf length was calculated. Results are tabulated in Table I and illustrated in FIGS. 3 and 4.

The test system of test [2] is radish plants. The experiment in a line: Radish shoot height, treated twice at four day intervals. The following applies: IAA and kinetin equivalent to relative amounts in 6 oz/acre PGR solution; two treatments; 15 plants. The protocol: In this portion of the experiment radish plants were treated twice at four day intervals. Plants were treated first on emergence, and again four (4) days later. Measurements were taken one week after the last treatment. Treatments are equivalent to 6 oz/acre, 12 oz/acre, and 24 oz/acre of PGR solution, while the IAA and kinetin treatments are equivalent to the relative amounts in the 6 oz/acre rate of PGR solution. […] The results of these experiments are tabulated in Table II and illustrated in FIG. 5.

A further test has as its system Tomato variety TSH04. The experiment in a line: Effects of PGRs on tomato fruit weight (greenhouse). The following applies: one truss per plant; 112 days after planting; PGR 6 oz/acre, IAA/kinetin 0.42 or 0.11 micrograms; soil or foliar not told apart. The protocol:
In this experiment, the effects of PGRs on tomato yield were determined. Tomato variety TSH04, which is a processing tomato, was used. All plants were grown in five gallon pots in a greenhouse. Eight plants were used for each treatment. Application of the treatments was done aerially to eight plants and in the soil for eight plants to allow comparison of soil versus foliar application of the PGRs. Treatments were 6 oz/acre PGR solution. The treating solutions were prepared by diluting 0.0042 ml of concentrated solution into 100 ml water for application to the soil, or into 50 ml water for foliar application. The IAA solution was prepared by diluting 0.42 micrograms of IAA into 100 ml water for application to the soil, or into 50 ml water for foliar application. The cytokinin solution was prepared by diluting 0.42 micrograms of kinetin into 100 ml water for application to the soil, or into 50 ml water for spraying of the foliage. The solution containing both IAA and kinetin at a 1:1 ratio was prepared by diluting 0.42 micrograms of IAA and 0.42 micrograms of kinetin into 100 ml water for application to the soil, or into 50 ml water for foliar application. A solution containing both IAA and kinetin at a 4:1 ratio was prepared by diluting 0.42 micrograms of IAA and 0.11 micrograms of kinetin into 100 ml water for soil application, or into 50 ml water for foliar application. Finally, a solution containing both IAA and kinetin at a 1:4 ratio was prepared by diluting 0.11 micrograms of IAA and 0.42 micrograms of kinetin into 100 ml water for soil application, or into 50 ml water for foliar application. Water was employed as a control. Plants were kept pruned to one fruiting truss per plant and the weight of the fruit from each plant was measured when most of the fruit had ripened (112 days after planting). FIGS. 6 and 7 illustrate the increased fruit weight achieved, respectively, for total and individual fruits with each treatment.

In test [3] the test system is National pickling cucumber. The experiment in a line: Effects of PGRs on cucumber internode length, 21 days. The following applies: soil applied weekly, 21 days after planting; for Internode 1 length: first (bottom) internode, 6 oz/acre or 0.42 micrograms; for Internode 2 length: second (middle) internode; for Internode 3 length: third (top) internode. The protocol:
In this experiment, the effect of PGRs on cucumber internode length was determined. The cucumber variety used was the National pickling cucumber distributed by NK Lawn & Garden Co. (Chattanooga, Tenn.). Eight plants were used per treatment. Treatments were applied to the soil of each five-gallon pot containing one plant per pot. Treatments were 6 oz/acre PGR solution. The final PGR solution was prepared by diluting 0.0042 ml of the concentrated solution into 100 ml water. The IAA solution was prepared by diluting 0.42 micrograms of IAA into 100 ml water. The cytokinin solution was prepared by diluting 0.42 micrograms of kinetin into 100 ml water. Finally, plants were treated with 6 oz/acre N-Large. The treating solution was prepared by diluting 0.0042 ml of the commercial solution into 100 ml water. N-Large is a formulation containing 4 percent gibberellin (GA3). Water was used as a control. Treatments were applied to the soil at the time of planting, and weekly thereafter. Twenty-one (21) days after planting, the internode length of the first (bottom), second (middle), and third (top) internodes were measured to the nearest millimeter. The average internode length for first, second, and third internodes was calculated for each treatment. Results are tabulated in Table IV and illustrated in FIG. 8.

Test [4] concerns National pickling cucumber. The experiment in a line: Effects of PGRs on cucumber vines and fruit, 84 days. The following applies: for Average Branch Number / Average Internode Number / Average Vine Length: 84 days after planting; for Average Internode Length: 84 days, vine length divided by internode number; for Average Cucumber Weight: harvested 84 days after planting.

Consider `O=C(O)Cc1c[nH]c2ccccc12` [Auxin, indole-3-acetic acid], for which, in the test with radish plants [1], the “Average Leaf Length” value is reported as 121.15 ± 5.20 mm and the “Average Hypocotyl Length” value came to 51.15 ± 2.64 mm. Also, the “Shoot Height Foliar Applied” value in the test with radish plants [2] amounted to 91.46 ± 4.20 mm. Moreover, in the test on Tomato variety TSH04, the “Average total fruit weight per plant” value was 63.79 ± 7.59 grams and the “Average weight of each fruit” value turned out to be 11.45 ± 1.99 grams. In test [3], the “Internode 1 length” value was 115.88 ± 4.01 millimeters, the “Internode 2 length” value is given as 25.38 ± 3.13 millimeters and the “Internode 3 length” value is on record as 4.50 ± 1.91 millimeters. For the same compound, in test [4], the “Average Branch Number” value is 7.25 ± 1.86, the “Average Internode Number” value was determined as 30.75 ± 1.96, the “Average Vine Length” value was determined as 267.00 ± 5.70 mm and the “Average Internode Length” value was determined as 8.72 ± 0.87 mm. In test [4], the “Average Cucumber Weight” value is on record as 311.98 ± 9.17 gm.

Consider `c1coc(CNc2ncnc3[nH]cnc23)c1` [Cytokinin, kinetin], for which, in the test with radish plants [1], the “Average Leaf Length” value was determined as 101.25 ± 4.46 mm and the “Average Hypocotyl Length” value is on record as 46.10 ± 3.10 mm. For the same compound, in the test on radish plants [2], the “Shoot Height Foliar Applied” value is reported as 89.00 ± 4.55 mm. Besides, in the test on Tomato variety TSH04, the “Average total fruit weight per plant” value was found to be 89.08 ± 6.85 grams and the “Average weight of each fruit” value is 14.76 ± 2.47 grams. In test [3], the “Internode 1 length” value is 106.38 ± 3.98 millimeters, the “Internode 2 length” value is given as 20.25 ± 3.40 millimeters and the “Internode 3 length” value came out at 2.13 ± 1.25 millimeters. In test [4], the “Average Branch Number” value worked out at 6.25 ± 2.27, the “Average Internode Number” value amounted to 30.50 ± 1.75, the “Average Vine Length” value came to 255.50 ± 5.61 mm and the “Average Internode Length” value was found to be 8.37 ± 0.62 mm. For the same compound, the “Average Cucumber Weight” value in test [4] worked out at 229.71 ± 1.33 gm.

Source of the values: patent publication US8207091B2, “Methods for improving growth and crop productivity of plants by adjusting plant hormone levels, ratios and/or co-factors” (Stoller Enterprises, Inc., priority 2004, dated 2012).
